Assay results published in patent US20090111733A1, “PAR-4 RELATED METHODS AND COMPOSITIONS” (President and Fellows of Harvard College, priority 2006, published 2009).

Legend:
[1] = system: dopamine-mediated cAMP signaling; experiment: cAMP accumulation in cultured primary striatal neurons from wild type and Par-4ΔLZ embryos (cAMP EIA); assay type: cell-based, mouse; conditions: for upregulation of cAMP signaling comparable to that with dopamine: Par-4ΔLZ striatal neurons
Method: DIV 11-14 neurons cultured in 24 well-plates were replaced with neurobasal media supplemented with 10 mM HEPES (pH7.4) containing drugs indicated for 50 min at room temperature, cells were lysed in 200 μl of 0.1M HCl solution for 15 min with gentle shaking and spun in the microcentrifuge tubes. cAMP concentration of the supernatant was measured using the cAMP-Enzyme Immunoassay Kit (Assay Designs) following manufacture's instructions. Concentrations of cAMP were normalized using protein concentrations measured by Biorad Protein Assay System (Bio-rad).

[2] = system: CREB S133 phosphorylation
Method: The cells were mechanically dissociated by triturating with a fine polished glass pipette, diluted in Neurobasal media (Invitrogen) supplemented with 10% horse serum and 10 mM HEPES (pH7.2), and plated in a dish coated with poly-D-lysine (Sigma) and laminin (Sigma). Cultured DIV12-13 mouse neurons were lysed for 30 min at 4° C. with gentle shaking in the extraction buffer (50 mM Tris pH8.0, 50 mM NaCl, 1.0% NP-40, 0.5% sodium deoxycholate, 0.1% SDS, 1 mM EDTA, 1 mM EGTA, 1 mM NaF, 20 mM Na4P2O7, 2 mM Na3VO4, 10% glycerol) supplemented with protease inhibitor cocktail (Sigma). Cell lysates were centrifuged for 15 min at 12,000 g at 4° C. and the supernatants were applied to ELISA using the Immunoassay kits for total CREB and […] phospho-CREB (Biosource) following the manufacturer's instruction.

[3] = system: Par-4 nuclear translocation; experiment: Par-4 nuclear translocation in cultured striatal neurons; assay type: cell-based; conditions: activation of glutamate receptors
Par-4/D2DR association = experiment: Co-immunoprecipitation of Par-4 with D2DR-EGFP in the stable D2DR-EGFP cell line; assay type: cell-based, human
[4] = biological target: GST-D2i3 (GST fusion of the third intracellular loop of the long isoform of human D2DR, amino acid residues 212-373) (human); experiment: in vitro GST pull-down with purified proteins
[5] = biological target: T1, D2i3 (third intracellular loop of the long isoform of human D2DR) (Homo sapiens, UniProt P14416); experiment: In vitro binding assay with purified GST-D2i3 and Par-4LZ proteins; conditions: in the presence of Ca2+
T1 construct: A long isoform of D2i3 (amino acid 212-373) was amplified from a human D2DR cDNA clone; made in house; host or cells: E. coli BL21
T1 sequence (P14416 212-241): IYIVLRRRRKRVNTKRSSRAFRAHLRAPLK
Method: (§1) pPC97-D2i3 and pPC86-Par-4LZ plasmids were digested with SalI and NotI and cloned into pGEX4T-2 (Amersham-Pharmacia) using the same restriction sites to make GST-D2i3 and GST-Par-4LZ fusion proteins, respectively. GST-fusion proteins were expressed in BL21 bacteria and purified following manufacturer's instruction. For the in vitro binding assay, 500 nmoles of GST-Par-4LZ fusion protein in PBS was digested with 0.2 NIH units of thrombin (Sigma) for 2 hours at room temperature and the reaction was stopped by adding PMSF (10 μM, Sigma) and incubated for an additional 1 hour at 4° C. The GST portion of the digested protein was removed by glutathione sepharose (Amersham-Pharmacia). The supernatant was equilibrated to final 1× binding buffer (200 mM NaCl, 0.2% Triton X-100, 0.2mg/ml BSA and 50 mM Tris, pH 7.5). Binding reaction was initiated by adding 500 nmoles of GST-D2i3 (50 nM of GST-D2i3^221-241 in the competition assay) to Par-4LZ protein in the 1× binding buffer and incubated for 2-3 hours at 4° C. GST-D2i3 was precipitated using 100 μl of 10% glutathione sepharose in 1× binding buffer. The precipitate was washed 3 times with 1× binding buffer and resuspended in 2× SDS sample loading buffer.

[6] = biological target: T2, D2i3 (third intracellular loop of the long isoform of human D2DR) (Homo sapiens, UniProt P14416); experiment: as above; conditions: equimolar amount of GST-D2i3 protein
T2 construct: A long isoform of D2i3 (amino acid 212-373) was amplified from a human D2DR cDNA clone; made in house; host or cells: E. coli BL21
T2 sequence (P14416 212-373): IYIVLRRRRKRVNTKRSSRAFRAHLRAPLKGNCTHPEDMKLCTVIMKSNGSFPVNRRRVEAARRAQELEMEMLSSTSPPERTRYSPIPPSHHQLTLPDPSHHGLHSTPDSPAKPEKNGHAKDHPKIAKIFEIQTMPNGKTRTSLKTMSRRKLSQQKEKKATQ
Method: as §1

NCCc1ccc(O)c(O)c1 [dopamine]
cAMP levels ([1]; Par-4ΔLZ mutant neurons, 1-10 μM of dopamine): markedly elevated
dopamine-induced downregulation of CREB S133 phosphorylation ([2]; Par-4ΔLZ neurons): not observed
CREB S133 phosphorylation ([2]; wild type neurons, dose-dependent): significantly decreased

N[C@@H](CCC(=O)O)C(=O)O [glutamate]
nuclear translocation of Par-4 [3]: induce nuclear translocation

C[C@H](CCC(=O)O)C[C@H](C)C[C@H](C)C(=O)/C=C(\O)[C@H](C)C[C@H](C)C/C=C/[C@@H](C)[C@@H](O)[C@@H](C)[C@@H](O)C[C@@H]1CC[C@@](C)([C@H]2CC[C@@](C)([C@@H](C)O)O2)O1 [ionomycin]
co-immunoprecipitation of Par-4 with D2DR-EGFP (Par-4/D2DR association): significantly reduced

NC[C@H](O)c1ccc(O)c(O)c1 [norepinephrine]
upregulation of cAMP signaling comparable to that with dopamine [1]: not detected

NCCc1c[nH]c2ccc(O)cc12 [serotonin]
upregulation of cAMP signaling comparable to that with dopamine [1]: not detected

CCN1CCCC1CNC(=O)c1cc(S(N)(=O)=O)ccc1OC (stereo not shown) [sulpiride]
cAMP response to dopamine ([1]; Par-4ΔLZ neurons, co-treated with dopamine): no such effect
cAMP response to dopamine ([1]; wild type neurons, co-treated with 1-10 μM dopamine): enhanced

C/C=C(/C)C(=O)O[C@H]1C(C)=C2[C@H]([C@@H]1OC(=O)CCCCCCC)[C@@](C)(OC(C)=O)C[C@H](OC(=O)CCC)[C@@]1(O)[C@H]2OC(=O)[C@@]1(C)O [thapsigargin]
co-immunoprecipitation of Par-4 with D2DR-EGFP (Par-4/D2DR association): significantly reduced

Par-4LZ protein (purified; human Par-4 amino acid residues 245-342, leucine zipper domain)
percent of total protein pulled down [4]: 50%

calmodulin
interaction of Par-4LZ with D2i3 in the presence of increasing calmodulin levels [5]: effectively interfered

B1: Par-4LZ: human Par-4 amino acid residues 245-342 that harbor the leucine zipper domain (protein)
chain: DRSGFPRYNRDANVSGTLVSSSTLEKKIEDLEKEVVRERQENLRLVRLMQDKEEMIGKLKEEIDLLNRDLDDIEDENEQLKQENKTLLKVVGQLTR
fraction of total Par-4LZ protein pulled down by GST-D2i3 [6]: Approximately 50%
